Assay results as given in patent US11771738B2 (Zoetis Services LLC, priority 2018, dated 2023).
Where two headings read alike, the source gives them in different places.

What was measured:
Type in all cases: cell-based
[1] = tested on: third stage larvae of Haemonchus contortus; test: Haemonchus contortus, Larvae Stage 3 (HcL3) In Vitro Assay; conditions: for minimal effective concentration: Haemonchus contortus, 96 h
[2] = tested on: microfilariae of Dirofilaria immitis; test: Dirofilaria immitis, Microfilaria (DiMf) In Vitro Assay; conditions: Dirofilaria immitis, 72 h, read-out: DiMf MED, Minimum Effective Dose, D. immitis microfilariae motility, in vitro
D. immitis L4 larvae = test: Dirofilaria immitis, L4 Stage (DiL4) In Vitro Assay; conditions: for DiMf/DiL4: larval stage selectivity, ratio of DiMf MED to DiL4 MED; for minimal effective concentration: Dirofilaria immitis, 72 h, read-out: DiL4 MED, Minimum Effective Dose, D. immitis L4 larvae motility, in vitro
[3] = read-out: HcL3 MED, Haemonchus contortus third stage larvae in vitro, class mark appended to the Ex # in Table 3
[4] = read-out: HcL3 MED, Minimum Effective Dose, H. contortus third stage larvae, approximately 96 hours
[5] = read-out: HcL3 MED, approximately 96 hours incubation, multiple-resistant field isolate

Row | Compound | minimal effective concentration ([1]; read-out: HcL3 MED (symbol after Ex#), approximately 96 hours incubation, multiple-resistant field isolate) | HcL3 MED ([1]; Minimum Effective Dose, H. contortus third stage larvae, approximately 96 hours, listed as (4-141)) | minimal effective concentration [2] | DiL4 MED (D. immitis L4 larvae; Minimum Effective Dose, D. immitis L4 larvae motility, in vitro, listed as (4-141)) | DiMf/DiL4 (D. immitis L4 larvae; listed as (4-141)) | minimal effective concentration [1, 3] | minimal effective concentration [1, 4] | minimal effective concentration [1, 5] | minimal effective concentration (D. immitis L4 larvae) | DiMf/DiL4 (D. immitis L4 larvae)
1 | Cc1cnsc1Cc1ccc(C[C@H]2OC(=O)[C@H](CC(C)C)N(C)C(=O)[C@@H](C)OC(=O)[C@H](CC(C)C)N(C)C(=O)[C@@H](Cc3ccc(Cc4sncc4C)cc3)OC(=O)[C@H](CC(C)C)N(C)C(=O)[C@@H](C)OC(=O)[C@H](CC(C)C)N(C)C2=O)cc1 [Example 4-141, (3S,6R,9S,12R,15S,18R,21S,24R)-3,9,15,21-tetraisobutyl-4,6,10,16,18,22-hexamethyl-12,24-bis(4-((4-methylisothiazol-5-yl)methyl)benzyl)-1,7,13,19-tetraoxa-4,10,16,22-tetraazacyclotetracosan-2,5,8,11,14,17,20,23-octaone] | 1 to 3.3 µM | 1.8 µM | 0.003 µM | 1 nM | 3 | – | – | – | – | –
2 | CCc1ncncc1Cc1ccc(C[C@H]2OC(=O)[C@H](CC(C)C)N(C)C(=O)[C@@H](C)OC(=O)[C@H](CC(C)C)N(C)C(=O)[C@@H](Cc3ccc(Cc4cncnc4CC)cc3)OC(=O)[C@H](CC(C)C)N(C)C(=O)[C@@H](C)OC(=O)[C@H](CC(C)C)N(C)C2=O)cc1 [Example 3-310, (3S,6R,9S,12R,15S,18R,21S,24R)-6,18-bis(4-((4-ethylpyrimidin-5-yl)methyl)benzyl)-3,9,15,21-tetraisobutyl-4,10,12,16,22,24-hexamethyl-1,7,13,19-tetraoxa-4,10,16,22-tetraazacyclotetracosan-2,5,8,11,14,17,20,23-octaone] | – | – | 0.0003 µM | – | – | < 1 µM | 1 µM | ≤ 1 µM | 0.001 µM | 0.3
3 | Cc1cc(Cc2ccc(C[C@H]3OC(=O)[C@H](CC(C)C)N(C)C(=O)[C@@H](C)OC(=O)[C@H](CC(C)C)N(C)C(=O)[C@@H](Cc4ccc(Cc5cc(C)nn5C)cc4)OC(=O)[C@H](CC(C)C)N(C)C(=O)[C@@H](C)OC(=O)[C@H](CC(C)C)N(C)C3=O)cc2)n(C)n1 [Example 3-49, (3S,6R,9S,12R,15S,18R,21S,24R)-6,18-bis(4-((1,3-dimethyl-1H-pyrazol-5-yl)methyl)benzyl)-3,9,15,21-tetraisobutyl-4,10,12,16,22,24-hexamethyl-1,7,13,19-tetraoxa-4,10,16,22-tetraazacyclotetracosan-2,5,8,11,14,17,20,23-octaone] | – | – | 0.005 µM | – | – | 1 to 3.3 µM | 3.3 µM | – | 0.001 µM | 5
4 | CC(C)C[C@H]1C(=O)O[C@H](Cc2ccc(Cc3ncco3)cc2)C(=O)N(C)[C@@H](CC(C)C)C(=O)O[C@H](C)C(=O)N(C)[C@@H](CC(C)C)C(=O)O[C@H](Cc2ccc(Cc3ncco3)cc2)C(=O)N(C)[C@@H](CC(C)C)C(=O)O[C@H](C)C(=O)N1C [Example 3-18, (3S,6R,9S,12R,15S,18R,21S,24R)-3,9,15,21-tetraisobutyl-4,6,10,16,18,22-hexamethyl-12,24-bis(4-(oxazol-2-ylmethyl)benzyl)-1,7,13,19-tetraoxa-4,10,16,22-tetraazacyclotetracosan-2,5,8,11,14,17,20,23-octaone] | – | – | 0.0002 µM | – | – | < 1 µM | 1 µM | ≤ 1 µM | 0.0001 µM | 2
5 | CSc1ncccc1Cc1ccc(C[C@H]2OC(=O)[C@H](CC(C)C)N(C)C(=O)[C@@H](C)OC(=O)[C@H](CC(C)C)N(C)C(=O)[C@@H](Cc3ccc(Cc4cccnc4SC)cc3)OC(=O)[C@H](CC(C)C)N(C)C(=O)[C@@H](C)OC(=O)[C@H](CC(C)C)N(C)C2=O)cc1 [Example 3-308, (3S,6R,9S,12R,15S,18R,21S,24R)-3,9,15,21-tetraisobutyl-4,6,10,16,18,22-hexamethyl-12,24-bis(4-((2-(methylthio)pyridin-3-yl)methyl)benzyl)-1,7,13,19-tetraoxa-4,10,16,22-tetraazacyclotetracosan-2,5,8,11,14,17,20,23-octaone] | – | – | 0.01 µM | – | – | 1 to 3.3 µM | 3.3 µM | – | 0.001 µM | 10
6 | COc1ncccc1C(C)(F)c1ccc(C[C@H]2OC(=O)[C@H](CC(C)C)N(C)C(=O)[C@@H](C)OC(=O)[C@H](CC(C)C)N(C)C(=O)[C@@H](Cc3ccc(C(C)(F)c4cccnc4OC)cc3)OC(=O)[C@H](CC(C)C)N(C)C(=O)[C@@H](C)OC(=O)[C@H](CC(C)C)N(C)C2=O)cc1 (stereo partly drawn) [Example 3-220, (3S,6R,9S,12R,15S,18R,21S,24R)-6,18-bis(4-(1-fluoro-1-(2-methoxypyridin-3-yl)ethyl)benzyl)-3,9,15,21-tetraisobutyl-4,10,12,16,22,24-hexamethyl-1,7,13,19-tetraoxa-4,10,16,22-tetraazacyclotetracosan-2,5,8,11,14,17,20,23-octaone] | – | – | 0.005 µM | – | – | – | > 100 µM | – | 0.0007 µM | 7.1
7 | CC(C)C[C@H]1C(=O)O[C@H](Cc2ccc(Cc3ccnn3CC3CC3)cc2)C(=O)N(C)[C@@H](CC(C)C)C(=O)O[C@H](C)C(=O)N(C)[C@@H](CC(C)C)C(=O)O[C@H](Cc2ccc(Cc3ccnn3CC3CC3)cc2)C(=O)N(C)[C@@H](CC(C)C)C(=O)O[C@H](C)C(=O)N1C [Example 3-275, (3S,6R,9S,12R,15S,18R,21S,24R)-6,18-bis(4-((1-(cyclopropylmethyl)-1H-pyrazol-5-yl)methyl)benzyl)-3,9,15,21-tetraisobutyl-4,10,12,16,22,24-hexamethyl-1,7,13,19-tetraoxa-4,10,16,22-tetraazacyclotetracosan-2,5,8,11,14,17,20,23-octaone] | – | – | 0.01 µM | – | – | 1 to 3.3 µM | 1.8 µM | – | 0.001 µM | 10
8 | COc1nc(C)c(Cc2ccc(C[C@H]3OC(=O)[C@H](CC(C)C)N(C)C(=O)[C@@H](C)OC(=O)[C@H](CC(C)C)N(C)C(=O)[C@@H](Cc4ccc(Cc5sc(OC)nc5C)cc4)OC(=O)[C@H](CC(C)C)N(C)C(=O)[C@@H](C)OC(=O)[C@H](CC(C)C)N(C)C3=O)cc2)s1 [Example 3-209, (3S,6R,9S,12R,15S,18R,21S,24R)-3,9,15,21-tetraisobutyl-6,18-bis(4-((2-methoxy-4-methylthiazol-5-yl)methyl)benzyl)-4,10,12,16,22,24-hexamethyl-1,7,13,19-tetraoxa-4,10,16,22-tetraazacyclotetracosan-2,5,8,11,14,17,20,23-octaone] | – | – | 0.01 µM | – | – | – | > 100 µM | – | 0.0005 µM | 20
9 | COc1ccsc1Cc1ccc(C[C@H]2OC(=O)[C@H](CC(C)C)N(C)C(=O)[C@@H](C)OC(=O)[C@H](CC(C)C)N(C)C(=O)[C@@H](Cc3ccc(Cc4sccc4OC)cc3)OC(=O)[C@H](CC(C)C)N(C)C(=O)[C@@H](C)OC(=O)[C@H](CC(C)C)N(C)C2=O)cc1 [Example 3-110, (3S,6R,9S,12R,15S,18R,21S,24R)-3,9,15,21-tetraisobutyl-6,18-bis(4-((3-methoxythiophen-2-yl)methyl)benzyl)-4,10,12,16,22,24-hexamethyl-1,7,13,19-tetraoxa-4,10,16,22-tetraazacyclotetracosan-2,5,8,11,14,17,20,23-octaone] | – | – | 0.03 µM | – | – | – | > 100 µM | – | 0.0001 µM | 300
10 | Cc1ccncc1Cc1ccc(C[C@H]2OC(=O)[C@H](CC(C)C)N(C)C(=O)[C@@H](C)OC(=O)[C@H](CC(C)C)N(C)C(=O)[C@@H](Cc3ccc(Cc4cnccc4C)cc3)OC(=O)[C@H](CC(C)C)N(C)C(=O)[C@@H](C)OC(=O)[C@H](CC(C)C)N(C)C2=O)cc1 [Example 3-223, (3S,6R,9S,12R,15S,18R,21S,24R)-3,9,15,21-tetraisobutyl-4,6,10,16,18,22-hexamethyl-12,24-bis(4-((4-methylpyridin-3-yl)methyl)benzyl)-1,7,13,19-tetraoxa-4,10,16,22-tetraazacyclotetracosan-2,5,8,11,14,17,20,23-octaone] | – | – | 0.005 µM | – | – | – | 5.7 µM | – | 0.0007 µM | 7.1
11 | CC(C)C[C@H]1C(=O)O[C@H](Cc2ccc(Cc3cccs3)cc2)C(=O)N(C)[C@@H](CC(C)C)C(=O)O[C@H](C)C(=O)N(C)[C@@H](CC(C)C)C(=O)O[C@H](Cc2ccc(Cc3cccs3)cc2)C(=O)N(C)[C@@H](CC(C)C)C(=O)O[C@H](C)C(=O)N1C [Example 3-4, (3S,6R,9S,12R,15S,18R,21S,24R)-3,9,15,21-tetraisobutyl-4,6,10,16,18,22-hexamethyl-12,24-bis(4-(thiophen-2-ylmethyl)benzyl)-1,7,13,19-tetraoxa-4,10,16,22-tetraazacyclotetracosan-2,5,8,11,14,17,20,23-octaone] | – | – | 0.02 µM | – | – | < 1 µM | 0.5 µM | ≤ 1 µM | 0.0001 µM | 200
